Series [1] relates to caspase 3/7 activity in BC-3 cells. The experiment in a line: Induction of caspase 3/7 activity (apoptosis). It is filed as cell-based, human. The note with it: 10 μM, 24 h. The procedure:
Apoptosis induction was evaluated 24 h after the treatment started by measuring caspase 3/7 activity in treated- or untreated control BC-3 cells. […] DDTC is used as a positive inducer of caspase 3/7 activity in BC-3 cell lines (Matsuno et al., 2012, Int J Oncol 40: 1071-1078).
BC-3 cells (10000 cells/well) were incubated 24 h with a concentration of 10 μM of Primaquine diphosphate (Sigma), Hycanthone (Sigma), or Diethyldithiocarbamate (DDTC) (Sigma), and then lysed and a 3/7 Reagent (DEVD) is added. Lysed cells release caspase-3 or -7, which cleave the DEVD substrate from the aminoluciferin. Finally, the oxidation of the luciferin by luciferase produces light, which is measured by a luminometer. The amount of light produced is proportional to the amount of caspase-3 or -7 activity. […] (DDTC) (Sigma) known to induce apoptosis in BC-3 cells via the inhibition of NF-κB is used as positive control.

The subject of series [2] is MRC-5, primary cutaneous fibroblasts, primary keratinocytes, Hela P4. The following applies: human, 48 h, 10 μM. Here is the method:
(§1) HHV8 infected cell line (BC3), HHV8-non infected cell lines (MRC5, HeLa P4), and HHV8 non infected primary cells (human keratinocytes, human cutaneous fibroblasts, B-type lymphocytes CD19+) were grown in vitro and treated by either Primaquine diphosphate, Hycanthone, Paclitaxel or Doxorubicin hydrochloride at a concentration of 10 μM. Cell viability was evaluated by ATP quantitation 48 h after the treatment started.
(§2) The effect of Primaquine diphosphate (Sigma), Hycanthone (Sigma), Paclitaxel (Sigma), and Doxorubicin (Sigma) were evaluated on relevant primary cells and cell lines that are or not infected by HHV-8.
• BC-3: cell line established from pleural effusion from a human immunodeficiency virus (HIV) negative patient diagnosed with primary effusion lymphoma (PEL). BC-3 cell line is HHV8 infected but not infected for Epstein-Barr virus (EBV) as well as for herpes simplex virus 1 &2 (HSV-1 & HSV-2) and cytomegalovirus (CMV) (ATCC), • MRC5: Cell line derived from normal lung tissue of a […] fetus (ATCC), • Primary cutaneous fibroblasts (Lonza ref CC 25 11), • Primary keratinocytes (Lonza ref 00 192 627), • HeLa: immortal cell line established from an adult human cervical cancer HVP-18 infected (NIH Reagent program), • Primary B-type lymphocytes CD19+: primary B cells positively selected using CD19 microbeads (Miltenyi).
(§3) Cells were treated in vitro with either Primaquine diphosphate (Sigma), Hycanthone (Sigma), Paclitaxel (Sigma), or Doxorubicin hydrochloride (Sigma) at a concentration of 10 μM. The viability of the cells was evaluated 48 h after the treatment started as previously described with the Kit CellTiter Glo (Promega).

In the next series the test system is BC-3 cells. The experiment in a line: Cell growth inhibition. The note with it: 10 μM, D0 to D3, versus BC3 cells cultured in standard conditions. It is filed as cell-based, human. The procedure: Cell growth was measured every day from the day of treatment (DO) until 3 days after the treatment started (D3).
BC-3 cells were grown in RPMI-1640 GlutaMAX (Gibco) supplemented with 10% fetal bovine serum and antibiotics (amikacine and vancomycine) during 3 days. The number of cells per milliliter is measured at baseline, DO, D2 and D3. BC-3 were cultured with and without primaquine and Hycanthone.

Series [3] deals with phosphorylation of IκB (NF-κB pathway) in BC-3 PEL cell line. The experiment in a line: IκB phosphorylation, western blot. In kind it is cell-based, human. The note with it: 10 μM, pre-treated for 6 and 12 h, BC-3 cells. The procedure:
BC-3 cells were pre-treated for 6 h (A) and 12 h (B) with primaquine and hycanthone at 10 μM. DDTC was used as positive control. Whole-cell lysates were prepared as described in Materials and Methods of example F and used for p-IκB western blot analysis by using the appropriate antibodies. […] Treatment of BC-3 cells with DDTC (diethyldithiocarbamate) was carried out in the same conditions and served as a positive control.
BC-3, an HHV-8 positive lymphoblastic cell line (ATCC CRL-2277) and RAMOS, an human Burkitt's lymphoma cell line (ATCC CRL-1596), were routinely maintained in RPMI 1640 medium supplemented with 10% fetal heat-inactivated bovine serum (FBS), and antibiotics (Sigma Chemical Co., St. Louis, Mo.) in a 5% CO2 incubator at 37° C. To prepare whole cell extracts, the cells were washed with cold phosphate-buffered saline twice and lysed in lysis RIPA buffer containing 10 mM Tris-HCl, pH 8.0, 140 mM NaCl, 1% Triton X-100, 1 mM EDTA, 0.5 mM EGTA, 0.1% sodium deoxycholate, 0.1% SDS, supplemented with protease inhibitor mixture (1 mM PMSF, 10 mM β-glycerophosphate, 10 mM NaF, 1 mM sodium orthovanadate, 1 mM sodium pyrophosphate), (ThermoFisher Scientific) at 4° C. for 30 min. […] The supernatants were collected as whole cell extracts, and protein concentration was determined by the Lowry method. […]
Background: Immunoblotting shows a protein as a band on a membrane.

For series [4], the system named is BC-3 cells (HHV8 infected PEL cell line). The experiment in a line: Cell viability (ATP quantitation, CellTiter Glo) of HHV8-infected cells. In kind it is cell-based, human. The note with it: 10 μM, 48 h, HHV8 infected BC-3 cells. Here is the method: as §1, §2
• BC-3: cell line established from pleural effusion from a human immunodeficiency virus (HIV) negative patient diagnosed with primary effusion lymphoma (PEL). […]
as §3

A further series deals with BC-3 xenograft (PEL). The experiment in a line: Primary Effusion Lymphoma xenograft model in immunodeficient NOD/SCID mice. It is filed as in vivo. The procedure: (§4) Primaquine efficacy was evaluated using a mice model of immunodeficient NOD/SCID mice. […] Mice weight was measured at various times (D6, D13, D20 and D24) after the treatment started.
Note the large growth tumor in the abdomen of the mouse that received BC-3 xenograft (“BC-3”) but not treated by primaquine.
At baseline, mice are inoculated with a PEL cell line (BC-3) by intraperitoneal (i.p) injection. One day after injection of BC-3 cells, Primaquine is administered by intraperitoneal injection, and then 3 times a week during 8 weeks. Tumoral burden is evaluated by the measure of weight every weeks (References: T. Matsuno, 2012: Diethyldithiocarbamate induces apoptosis in HHV-8-infected primary effusion lymphoma cells via inhibition of the NF-κB pathway; K. A. Sarosiek, 2010: Efficacy of bortezomib in a direct xenograft model of primary effusion lymphoma; W. Wu, 2005: Inhibition of HHV-8/KSHV infected primary effusion lymphomas in NOD/SCID mice by azidothymidine and interferon).
The experiment was conducted on 24 NOD/SCID mice (4 groups of 6 mice) (Charles River laboratories): 1 group (Mock) without xenograft (no BC-3) and non-treated (no Primaquine), 1 group with xenograft (BC-3) and non-treated (no Primaquine), 1 group with xenograft (BC-3) and treated (Primaquine 12.5 mg/kg; (Sigma), 1 group without xenograft and treated (Primaquine 12.5 mg/kg; (Sigma). […]

The nature of series [5]: Toxicity of Primaquine in NOD/SCID mice. In kind it is in vivo. The note with it: 12.5 mg/kg, after 24 days of treatment. Here is the method:
as §4
The experiment was conducted on 24 NOD/SCID mice (4 groups of 6 mice) (Charles River laboratories): 1 group (Mock) without xenograft (no BC-3) and non-treated (no Primaquine), 1 group with xenograft (BC-3) and non-treated (no Primaquine), 1 group with xenograft (BC-3) and treated (Primaquine 12.5 mg/kg; (Sigma), 1 group without xenograft and treated (Primaquine 12.5 mg/kg; (Sigma).
At the beginning of the experiments, the mice were 6 weeks old according to previous experiments conducted and available in the literature. Animals had 7 to 10 days of acclimatization before experiment. At baseline, 20.10^6 of BC3 cells in 500 μL of PBS were injected by i.p. in order to induce the development of PEL. Tumor growth is correlated with the total gain of weight. The consequent gain of weight should not exceed 150% of the baseline weight. For the group of mice […] by Primaquine, each mice received 1 i.p injection of 500 μL of PBS instead of BC-3 cells in order to evaluate the toxicity of Primaquine in mice.

SMILES strings stand for the structures. Structures can show the parent of a compound that is named as a salt.

As to `CCN(CC)C(=S)S` [DDTC, Diethyldithiocarbamate], in series [1], the “apoptosis (caspases 3/7 activation) versus non-treated control” value was 4 times.
Consider `CCN(CC)CCNc1ccc(CO)c2sc3ccccc3c(=O)c12` [Hycanthone], for which the “toxicity (cell death) in other cell types non infected by HHV8” value in series [2] is less than 20%. Further, in series [1], the “apoptosis (caspases 3/7 activation) versus non-treated control” value is reported as “at least as equivalent of that induced by DDTC”. Further, the “cellular growth of BC3” value in the series with BC-3 cells is on record as “inhibited cellular growth”. Further, the “phosphorylation of IκB” value in series [3] was “dramatically reduced”.
For `CC(=O)O[C@H]1C(=O)[C@@]2(C)[C@H]([C@H](OC(=O)c3ccccc3)[C@]3(O)C[C@H](OC(=O)[C@H](O)[C@@H](NC(=O)c4ccccc4)c4ccccc4)C(C)=C1C3(C)C)[C@]1(OC(C)=O)CO[C@@H]1C[C@@H]2O` [Paclitaxel], in series [4], the “cell death in BC-3 cells” value was “induced cell death”. In addition, in series [2], the “toxicity (cell death) in other cell types non infected by HHV8” value is greater than 20%.
Take `COc1cc(NC(C)CCCN)c2ncccc2c1` (stereo not drawn) [Primaquine diphosphate, Primaquine]: the “apoptosis (caspases 3/7 activation) versus non-treated control” value in series [1] is recorded as “at least as equivalent of that induced by DDTC”. In addition, the “cellular growth of BC3” value in the series with BC-3 cells is recorded as “inhibited cellular growth”. The “reduction of the median gain of weight” value with BC-3 xenograft (PEL) (12.5 mg/kg i.p. 3 times a week, D24, versus untreated mice with BC-3 xenograft) was found to be 39.4%. Further, the “growth tumor in the abdomen” value in the series with BC-3 xenograft (PEL) (12.5 mg/kg, after 24 days of treatment, picture versus untreated BC-3 mouse) is listed as “reduced growth tumor”. Further, in series [5], the toxicity in mice result is recorded as “did not show any toxicity”. In addition, in series [3], the “phosphorylation of IκB” value is listed as “dramatically reduced”.
Regarding `COc1cccc2c1C(=O)c1c(O)c3c(c(O)c1C2=O)C[C@@](O)(C(=O)CO)C[C@@H]3O[C@H]1C[C@H](N)[C@H](O)[C@H](C)O1` [doxorubicin, Doxorubicin hydrochloride], the “cell death in BC-3 cells” value in series [4] is “induced cell death”. Further, the “toxicity (cell death) in other cell types non infected by HHV8” value in series [2] is reported as greater than 20%.
